According to US20080234299A1, “Quinazolinones” (MERCK PATENT GMBH, priority 2005, published 2008):

Tested on: cells
Experiment: cell cycle experiments (G2/M)
Type: cell-based

N=C(N)c1ccc(OCCCCCOc2ccc(C(=N)N)cc2)cc1 [pentamidine]
effect on cell cycle: maintain cells in the G2/M cell cycle
